In ChEMBL document CHEMBL1268846, “Synthesis and antiproliferative evaluation of N,N-disubstituted-N'-[1-aryl-1H-pyrazol-5-yl]-methnimidamides” (2010) one finds GI50 data, which are given here for 19 compounds.

As usually defined, the GI50 is the concentration giving 50% growth inhibition. Low values mean greater sensitivity of the cells, high ones lower sensitivity of the cells.

Assay type in all cases: functional
The test system of test [1] is NCI-H661. Nature of the test: Growth inhibition of human NCI-H661 cells after 72 hrs by MTT assay. The conditions noted are these: NCI-H661, 72 h. (In general: Tetrazolium assays rely on reduction of a dye to a coloured formazan, in cell work by metabolically active cells.)
Test [2] concerns Jurkat. Nature of the test: Growth inhibition of human Jurkat cells after 72 hrs by MTT assay.
A short description of test [3]: Growth inhibition of human NPC-TW01 cells after 72 hrs by MTT assay. The conditions noted are these: NPC-TW01, 72 h.

Take `Cc1cccc(-n2nc(-c3ccccc3)c(C=O)c2/N=C/N(C)C)c1`: the GI50 in test [1] is 31 µM; in test [2], 9.7 µM; in test [3], 8.9 µM.

Turning to `CN(C)/C=N/c1c(C=O)c(-c2ccccc2)nn1-c1ccccc1`, the results for the GI50 in test [1], in test [2] and in test [3] were 31.4 µM, 23.5 µM and 9.3 µM, respectively.

For the compound `COc1ccc(-c2nn(-c3ccccc3)c(/N=C/N(C)C)c2C=O)cc1`, the GI50 in test [1] worked out at 9.9 µM; in test [2], 12.5 µM; in test [3], 27.2 µM.

As to `CN(C)/C=N/c1c(C=O)c(C(C)(C)C)nn1-c1ccccc1`, the concentration for 50% growth inhibition (GI50) in test [1] was 42.8 µM; in test [2] it was 43.5 µM; in test [3] it was over 50 µM.

On to `O=Cc1c(-c2ccccc2)nn(-c2ccccc2)c1/N=C/N1CCCC1`, for which the 50% growth inhibitory concentration (GI50) is 17.6 µM in test [1], 31.3 µM in test [2] and over 50 µM in test [3].

`CC/C(=N\c1cc(-c2ccccc2)nn1-c1ccccc1)NC`: the GI50 in test [1], in test [2] and in test [3] was over 50 µM throughout.

As to `CCN(/C=N/c1c(C=O)c(-c2ccccc2)nn1-c1ccccc1)CC`, the GI50 in test [1] came out at 28.8 µM; in test [2], 30 µM; in test [3], 30.5 µM.

As for `CN(C)/C=N/c1c(C=O)c(-c2ccccc2)nn1-c1cccc(Cl)c1`, the GI50 in test [1] is 6.9 µM; in test [2], 8.3 µM; in test [3], 6.4 µM.

For `CN/C=N/c1cc(-c2ccccc2)nn1-c1ccccc1`, the 50% growth inhibitory concentration (GI50) in test [1], in test [2] and in test [3] was over 50 µM throughout.

As for `CN(C)/C=N/c1c(C=O)c(-c2ccccc2)nn1-c1ccc(Br)cc1`, the values for the GI50 in test [1], in test [2] and in test [3] were 6.7 µM, 7.3 µM and 7.4 µM, respectively.

Take `C/C(=N\c1cc(-c2ccccc2)nn1-c1ccccc1)N(C)C`: the GI50 is 35.1 µM in test [1], over 50 µM in test [2] and over 50 µM in test [3].

In the case of `O=Cc1c(-c2ccccc2)nn(-c2ccccc2)c1/N=C/N1CCCCC1`, the results for the concentration for 50% growth inhibition (GI50) in test [1], in test [2] and in test [3] were 17.7 µM, 29 µM and 24.4 µM, respectively.

In the case of `CN(C)/C=N/c1c(C=O)c(-c2ccccc2)nn1-c1cccc([N+](=O)[O-])c1`, the figures for the GI50 in test [1], in test [2] and in test [3] were 50 µM, over 50 µM and 36.7 µM, respectively.

Take `CN/C(C)=N/c1cc(-c2ccccc2)nn1-c1ccccc1`: the GI50 in test [1], in test [2] and in test [3] was over 50 µM in each case.

`COc1ccc(-n2nc(-c3ccccc3)c(C=O)c2/N=C/N(C)C)cc1`: the GI50 in test [1] is 33.4 µM; in test [2], 19.7 µM; in test [3], 20.2 µM.

As to `CN(C)/C=N/c1c(C=O)c(-c2ccccc2)nn1-c1ccccc1Cl`, the results for the GI50 in test [1], in test [2] and in test [3] were 31.4 µM, 26.3 µM and 23.3 µM, respectively.

On to `Cc1ccc(-c2nn(-c3ccccc3)c(/N=C/N(C)C)c2C=O)cc1`, for which the GI50 in test [1] came to 11.9 µM; in test [2] it was 9.5 µM; in test [3], 9.7 µM.

For `CN(C)/C(=N/c1cc(-c2ccccc2)nn1-c1ccccc1)c1ccccc1`, the GI50 was 46.7 µM in test [1], 36.1 µM in test [2] and 20.8 µM in test [3].

As to `CN(C)/C=N/c1c(C=O)c(-c2ccc(Cl)cc2)nn1-c1ccccc1`, the GI50 came out at 8.6 µM in test [1], 7.9 µM in test [2] and 8.1 µM in test [3].
